Measurements: patent US9107852B2, “Uses of agonists of delta opioid receptor in cosmetic and dermocosmetic field” (Induchem Holding AG, priority 2012, dated 2015)
Ends that are not written are not given here.

Tested on: reconstructed human epidermis (RHE)
Assay: Protein expression (in situ immunolabeling) in RHE stimulated with cytokines
Format: cell-based
Details: 3 PPM peptide, % of level in non treated RHE
Experimental: In the present study, the effects of a peptide on the expression of 7 proteins were assessed on a reconstructed human epidermis (RHE) model stimulated or not with a mix of cytokines (IL-17+OSM+TNF-α).
More precisely, effects of compounds were evaluated on the protein expression of markers involved in: • tight junctions (Occludin), • […] (Corneosdesmosin) • keratinocyte differentiation (keratin 10, involucrin, calmodulin-like5), • and lipid synthesis (Acyl-CoA synthetase and sulfotransferase 2B).
Reconstructed human epidermis (RHE) of 11 days old were prepared according to a derived method described by Poumay et al. (2004). These RHE were cultivated at 37° C. and 5% of CO2 in a specific maintenance medium.
The RHE were treated with assay medium containing or not (control) the test compounds or the JAK inhibitor I at 10 μM and incubated for 24 hours. After pre-incubation, assay medium and treatments were renewed and epidermises were stimulated with a cytokine mix (OSM+IL-17+TNF-α*) at 3 ng/ml and incubated for additional 48 hours. All experimental conditions were performed in n=3. *Oncostatin M (OSM)+Interleukin 17 (IL-17)+ Tumor necrosis factor alpha (TNF-α)
At the end of incubation, the supernatants were collected and the RHE were washed in phosphate buffered saline solution (PBS) for in situ immunolabeling.
After incubation, the RHE were snap-frozen in liquid isopentane/N2 and stored at −80° C. The transversal sections were carried out using a microtome (5 μm thickness, one slide per RHE, several sections per slide).
The sections were fixed with an acetone/methanol mix and dried. After PBS-milk 5% saturation, the sections were incubated with the specific primary antibody solutions. […] The sections were washed and then observed under epifluorescence microscopy.
After incubation, RHE were rinsed and fixed with formaldehyde solution. Fixed tissues were dehydrated in multiple baths with increasing concentration of ethanol and then embedded in paraffin. The transversal sections were carried out using a microtome (5 μm thickness) and stored at room temperature.
The sections were deparaffinized then the antigenic sites were retrieved. The sections were washed and incubated with hydrogen peroxide. The sections, once washed, were incubated with the primary antibody (anti-Calmodulin-like 5 or anti-SULT2B1). […] After peroxidase-conjugated streptavidine and peroxidase substrate addition, nuclei were counter-stained with a solution of haematoxylin. The sections were washed, mounted in aqueous medium and observed under transmitted-light microscopy.
Sections were observed using a NIKON E400 microscope. Images were captured with a NIKON DS-Ri1 and processed with NIS-Elements 3.10 software (3 pictures per replicate). The image analysis was performed by measuring the fluorescence intensity using Image J software.
Results were expressed in % of the level of expression of each protein maker in non treated RHE.

Substance: YPLDLF [YPLDLF]
- Acyl-CoA synthetase protein expression level in RHE: 65%
- Calmodulin like 5 protein expression level in RHE: 100%
- Corneodesmosin protein expression level in RHE: 84%
- Involucrin protein expression level in RHE: 99%
- Keratin 10 protein expression level in RHE: 104%
- Occludin protein expression level in RHE: 97%
- Sulfotransferase 2B protein expression level in RHE: 100%
